Reference: US11072628B2, “Nucleoside analogues for the treatment of parasitic infections” (UNIVERSITEIT GENT, priority 2017, dated 2021)
Like-named read-outs stand apart in the source and are kept apart here.

Experiments:
[1] = test system: T. b. rhodesiense STIB-900; assay: In vitro drug susceptibility, T. b. rhodesiense STIB-900 (resazurin); assay type: cell-based, Trypanosoma brucei rhodesiense
Method: (§1) All trypanosome strains were cultured in the standard HMI-9 medium supplemented with 10% fetal bovine serum (FBS) at 37° C. in a 5% CO2 atmosphere.

T. brucei Squib 427 = assay: In vitro drug susceptibility, T. brucei Squib 427 (resazurin); assay type: cell-based, Trypanosoma brucei brucei
Method: as §1

[2] = Cytotoxicity against MRC-5 fibroblasts; details: human, MRC-5 fibroblasts, cytotoxicity
Method: (§2) Cytotoxicity was assayed against MRC-5 fibroblasts. Results are depicted in Tables 4 and 5.

[3] = test system: T. cruzi Tulahuen CL2 β galactosidase strain; assay: T. cruzi Tulahuen CL2 β galactosidase strain on MRC-5SV2 cells (CPRG); assay type: cell-based, Trypanosoma cruzi
Method: All cultures and assays were conducted at 37° C./5% CO2. […] The results were expressed as % reduction in parasite burdens compared to control wells from which an EC50 was calculated.

MRC-5 fibroblasts = assay: in vitro
Method: as §2

[4] = Trypanosoma brucei, RHODESIENSE, read-out: T. brucei rhod. EC50
[5] = Trypanosoma brucei, read-out: T. brucei brucei EC50, Table 1, average of 2-4 independent determinations
[6] = Trypanosoma cruzi, TULAHUEN, MRC-5 SV2, Table 2, average of 2-3 independent replicates
[7] = Table 1, average of 2-4 independent determinations, read-out: T. brucei rhod. EC50
[8] = Table 1, average of 2-4 independent determinations, read-out: T. brucei brucei EC50
[9] = Table 2, average of 2-3 independent replicates

Row | Compound | EC50 [1, 4] [µM] | EC50 (T. brucei Squib 427; [5]) [µM] | EC50 ([2]; MRC-5 EC50, Table 1) [µM] | EC50 ([2]; MRC-5 EC50, Table 2) [µM] | melting point [°C] | EC50 [3, 6] [µM] | EC50 [1, 7] [µM] | EC50 (T. brucei Squib 427; [8]) [µM] | EC50 (MRC-5 fibroblasts) [µM] | EC50 [3, 9] [µM] | also measured
1 | Nc1ncnc2c1c(Br)cn2[C@@H]1O[C@H](CSCCO)C[C@H]1O [FH9591, 4-amino-5-bromo-N7-(3′-deoxy-5′-thio-ethan-2-ol-β-D-ribofuranosyl)-pyrrolo[2,3-d]pyrimidine] | 0.71 | 5.05 | 26.5 | 26.5 | 164 | 33.8 | – | – | – | – | –
2 | CCCCC#Cc1cn([C@@H]2O[C@H](CO)C[C@H]2O)c2ncnc(N)c12 [FH9611, 4-amino-5-hex-1-yn-N7-(3′-deoxy-β-D-ribfuranosyl)-pyrrolo[2,3-d]pyrimidine] | 0.06 | 0.32 | > 64 | > 64 | 161 to 163 | 9.7 | – | – | – | – | –
3 | Nc1ncnc2c1c(/C=C/c1ccccc1)cn2[C@@H]1O[C@H](CO)C[C@H]1O [FH10660, 4-amino-5-(E-styryl)-N7-(3′-deoxy-β-D-ribfuranosyl)-pyrrolo[2,3-d]pyrimidine] | 0.17 | 1.76 | 49.4 | 49.4 | 170 | 6.28 | – | – | – | – | –
4 | Nc1ncnc2c1c(-c1cc(Cl)cc(Cl)c1)cn2[C@@H]1O[C@H](CO)C[C@H]1O [FH10642, 4-amino-5-(3,5-dichlorophenyl)-N7-(3′-deoxy-β-D-ribofuranosyl)-pyrrolo[2,3-d]pyrimidine] | 5.45 | 7.7 | 30.2 | 30.2 | 211 | 0.55 | – | – | – | – | –
5 | Nc1ncnc2c1c(-c1ccc(F)cc1)cn2[C@@H]1O[C@H](CO)C[C@H]1O [FH10680, 4-amino-5-(4-fluorophenyl)-N7-(3′-deoxy-β-D-ribofuranosyl)-pyrrolo[2,3-d]pyrimidine] | – | – | – | > 64 | 186 to 187 | 0.64 | – | – | – | – | –
6 | Nc1ncnc2c1c(CCc1ccccc1)cn2[C@@H]1O[C@H](CO)C[C@H]1O [FH10661, 4-amino-5-(phenylethyl)-N7-(3′-deoxy-β-D-ribfuranosyl)-pyrrolo[2,3-d]pyrimidine] | 0.67 | 8.26 | > 64 | > 64 | 76 | > 64 | – | – | – | – | –
7 | CCc1cn([C@@H]2O[C@H](CO)C[C@H]2O)c2ncnc(N)c12 [FH9613, 4-amino-5-ethyl-N7-(3′-deoxy-β-D-ribofuranosyl)-pyrrolo[2,3-d]pyrimidine] | 0.65 | 1.78 | > 64 | > 64 | 200 | 19.7 | – | – | – | – | –
8 | Nc1ncnc2c1c(-c1ccc(F)c(Cl)c1)cn2[C@@H]1O[C@H](CO)C[C@H]1O [FH10681, 4-amino-5-(3-chloro-4-fluorophenyl)-N7-(3′-deoxy-β-D-ribofuranosyl)-pyrrolo[2,3-d]pyrimidine] | – | – | – | 45.5 | 178 | 0.3 | – | – | – | – | –
9 | Nc1ncnc2c1c(-c1cccc(Cl)c1)cn2[C@@H]1O[C@H](CO)C[C@H]1O [FH10641, 4-amino-5-(3-chlorophenyl)-N7-(3′-deoxy-β-D-ribofuranosyl)-pyrrolo[2,3-d]pyrimidine] | 0.55 | 7.13 | 36.1 | 36.1 | 130 | 0.97 | – | – | – | – | –
10 | CCCC#Cc1cn([C@@H]2O[C@H](CO)C[C@H]2O)c2ncnc(N)c12 [FH9610, 4-amino-5-pent-1-yn-N7-(3′-deoxy-β-D-ribfuranosyl)-pyrrolo[2,3-d]pyrimidine] | 0.04 | 0.32 | > 64 | > 64 | 127 to 129 | 4.1 | – | – | – | – | –
11 | Nc1ncnc2c1c(-c1ccc(F)c(F)c1)cn2[C@@H]1O[C@H](CO)C[C@H]1O [FH10682, 4-amino-5-(3,4-difluorophenyl)-N7-(3′-deoxy-β-D-ribofuranosyl)-pyrrolo[2,3-d]pyrimidine] | – | – | – | > 64 | 218 | 0.33 | – | – | – | – | –
12 | CO[C@@H]1C[C@@H](CO)O[C@H]1n1cc(Br)c2c(N)ncnc21 [FH9616, 4-amino-5-bromo-N7-(2′-O-methyl-3′-deoxy-β-D-ribofuranosyl)-pyrrolo[2,3-d]pyrimidine] | – | – | – | – | – | – | 25.4 | 32.5 | > 64 | > 64 | –
13 | Cc1ccc(-c2cn([C@@H]3O[C@H](CO)C[C@H]3O)c3ncnc(N)c23)cc1Cl [FH10644, 4-amino-5-(3-chloro-4-methylphenyl)-N7-(3′-deoxy-β-D-ribofuranosyl)-pyrrolo[2,3-d]pyrimidine] | 5.99 | 4.74 | 17.9 | 17.9 | 135 | 0.27 | – | – | – | – | –
14 | C#Cc1cn([C@@H]2O[C@H](CO)C[C@H]2O)c2ncnc(N)c12 [FH8505, 4-amino-5-ethynyl-N7-(3′-deoxy-β-D-ribofuranosyl)-pyrrolo[2,3-d]pyrimidine] | 0.0005 | 0.005 | – | – | 192 | 1.66 | – | – | – | – | –
15 | COC[C@@H]1C[C@@H](O)[C@H](n2cc(Br)c3c(N)ncnc32)O1 [FH10626, 4-amino-5-bromo-N7-(3′-deoxy-5′-O-methyl-β-D-ribofuranosyl)-pyrrolo[2,3-d]pyrimidine] | – | – | – | – | – | – | 18.7 | 32 | 22.7 | 50.4 | –
16 | Nc1ncnc2c1c(-c1ccccc1)cn2[C@@H]1O[C@H](CO)C[C@H]1O [FH8480, 4-amino-5-phenyl-N7-(3′-deoxy-β-D-ribofuranosyl)-pyrrolo[2,3-d]pyrimidine] | – | – | – | – | – | – | 1.2 | 7.9 | 61.8 | 2.57 | –
17 | Nc1ccnc2c1ccn2[C@@H]1O[C@H](CO)C[C@H]1O [FH9550, 4-amino-N1-(3′-deoxy-β-D-ribofuranosyl)-pyrrolo[2,3-b]pyridine] | – | – | – | – | – | – | 30.8 | > 64 | > 64 | – | EC50 [3]: > 64 µM
18 | Nc1ncnc2c1c(Br)cn2[C@H]1CC[C@@H](CO)O1 [FH10638, 4-amino-5-bromo-N7-(2′,3′-dideoxy-β-D-ribofuranosyl)-pyrrolo[2,3-d]pyrimidine] | – | – | – | – | – | – | 24.4 | 57.9 | 16.4 | 43.3 | –
19 | Nc1ncnc2c1c(-c1ccc3ccccc3c1)cn2[C@@H]1O[C@H](CO)C[C@H]1O [FH9575, 4-amino-5-(2-naftyl)-N7-(3′-deoxy-β-D-ribfuranosyl)-pyrrolo[2,3-d]pyrimidine] | – | – | – | – | – | – | 2 | 18.6 | 5 | 0.72 | –
20 | Nc1ncnc2c1ccn2[C@@H]1O[C@H](COS(N)(=O)=O)C[C@H]1O [FH9608, 4-amino-N7-(3′-deoxy-5′-O-sulfamoyl-β-D-ribofuranosyl)-pyrrolo[2,3-d]pyrimidine] | – | – | – | – | – | – | 0.87 | 4.6 | 5.09 | 9.91 | –
21 | Nc1ncnc2c1c(-c1cccc(C(F)(F)F)c1)cn2[C@@H]1O[C@H](CO)C[C@H]1O [FH10640, 4-amino-5-(3-trifluoromethylphenyl)-N7-(3′-deoxy-β-D-ribofuranosyl)-pyrrolo[2,3-d]pyrimidine] | – | – | – | – | – | – | 1.77 | 8.6 | 49.6 | 11.2 | –
22 | OC[C@@H]1C[C@@H](O)[C@H](n2cc(Br)c3c(Cl)ccnc32)O1 [FH9540, 3-bromo-4-chloro-N1-(3′-deoxy-β-D-ribofuranosyl)-pyrrolo[2,3-b]pyridine] | – | – | – | – | – | – | 28.9 | 14.8 | 27.2 | – | EC50 [3]: 15 µM
23 | Nc1ncnc2c1c(-c1ccccn1)cn2[C@@H]1O[C@H](CO)C[C@H]1O [FH8502, 4-amino-5-(pyrid-2-yl)-N7-(3′-deoxy-β-D-ribfuranosyl)-pyrrolo[2,3-d]pyrimidine] | – | – | – | – | – | – | 37.3 | 7.6 | 33.7 | 40.8 | –
24 | CCSC[C@@H]1C[C@@H](O)[C@H](n2cc(Br)c3c(N)ncnc32)O1 [FH9590, 4-amino-5-bromo-N7-(3′-deoxy-5′-thio-ethyl-β-D-ribofuranosyl)-pyrrolo[2,3-d]pyrimidine] | – | – | – | – | – | – | 10.6 | 32.9 | 25.8 | 35.7 | –
25 | Nc1ccnc2c1c(Br)cn2[C@@H]1O[C@H](CO)C[C@H]1O [FH9549, 3-bromo-4-amino-N1-(3′-deoxy-β-D-ribofuranosyl)-pyrrolo[2,3-b]pyridine] | – | – | – | – | – | – | > 64 | 35.2 | > 64 | – | EC50 [3]: > 64 µM
26 | Nc1ncnc2c1c(-c1ccc3ccccc3n1)cn2[C@@H]1O[C@H](CO)[C@@H](O)[C@H]1O [MS1017] | – | – | – | – | – | – | – | – | > 64 | – | EC50 ([1]; Table 4, average of 2-6 independent determinations, read-out: T.b. rhod. EC50): 3.72 µM; EC50 (T. brucei Squib 427; Table 4, average of 2-6 independent determinations, read-out: T.b. brucei EC50): 6.45 µM; EC50 ([3]; Table 5, average of 2-4 independent replicates): 34.1 µM
27 | Nc1ncnc2c1c(-c1ccc(Cl)c(F)c1)cn2[C@@H]1O[C@H](CO)C[C@H]1O [FH10683, 4-amino-5-(3-fluoro-4-chlorophenyl)-N7-(3′-deoxy-β-D-ribofuranosyl)-pyrrolo[2,3-d]pyrimidine] | – | – | – | 18.6 | 206 | 0.07 | – | – | – | – | –
28 | 4-amino-5-bromo-N7-(2′,3′-anhydro-2′,3′-dideoxy-β-D-ribofuranosyl)-pyrrolo[2,3-d]pyrimidine [FH10632] | – | – | – | – | – | – | 59.9 | > 64 | 45.6 | > 64 | –
